Earlier results as cited in patent US20060073224A1, “Method of preparing Dioscorea tincture and uses thereof” (Omni Research Technology, priority 2004, published 2006).

Settings: purified crystalline powder

For `C[C@@H]1CC[C@@]2(OC1)O[C@H]1C[C@H]3[C@@H]4CC=C5C[C@@H](O)CC[C@]5(C)[C@H]4CC[C@]3(C)[C@H]1[C@@H]2C` [diosgenin], the insolubility in alcohol is given as “about 0.2%”.
